“Also recorded” adds a separate entry of the source. Like-named read-outs stand apart in the source and are kept apart here.
Assays:
Type in all cases: physicochemical
Solubility in water = experiment: Solubility in water
[1] = Solubility in organic solvents
[2] = Thermodynamic stability of the solid form; conditions: crystalline vs amorphous
[3] = Decomposition in solvents

solubility in water (Solubility in water) | solubility in water (Solubility in water; result in words) | solubility in DCM ([1]; DCM) | solubility in EtOH ([1]; EtOH) | solubility in MeOH ([1]; MeOH) | solubility in NMP ([1]; NMP) | solubility in THF ([1]; THF) | solubility in an amide solvent ([1]; amide solvent) | solubility in ethyl acetate ([1]; ethyl acetate) | solubility in toluene ([1]; toluene) | decomposition in DMF ([3]; strong polar aprotic solvent DMF) | decomposition in DMSO ([3]; strong polar aprotic solvent DMSO) | decomposition in water ([3]; water, rate is determined by heat and time) | SMILES | solubility in most organic solvents ([1]; most organic solvents) | thermodynamic stability [2]
up to 2% | insoluble; also recorded: not soluble | not soluble | not soluble | not soluble | soluble | not soluble | soluble | not soluble | not soluble | – | – | – | N[C@@H](CC(=O)Nc1ccn([C@@H]2O[C@H](CO)[C@@H](O)[C@@H]2O)c(=O)n1)C(=O)O [Form B, (S)-2-amino-4-((1-((2R,3S,4S,5R)-3,4-dihydroxy-5-(hydroxymethyl)tetrahydrofuran-2-yl)-2-oxo-1,2-dihydropyrimidin-4-yl)amino)-4-oxobutanoic acid] | non soluble; also recorded: insoluble; also recorded: not soluble | thermodynamically more stable than the amorphous form
– | – | – | – | – | – | – | – | – | – | decompose | decompose | decompose | Cl.N[C@@H](CC(=O)Nc1ccn([C@@H]2O[C@H](CO)[C@@H](O)[C@@H]2O)c(=O)n1)C(=O)O [aspacytarabine-HCl] | – | –

From US20230331762A1, “CRYSTALLINE FORM OF ASPACYTARABINE” (Biosight Ltd., priority 2020, published 2023)
